The values that follow come from US20140275234A1, “COMPOSITIONS AND METHODS OF USING CRYSTALLINE FORMS OF WORTMANNIN ANALOGS” (ONCOTHYREON INC., priority 2010, published 2014).

Data set [1] has as its system phosphatidylinositol-3-kinase (PI-3K). Conditions: cited from earlier work.
Data set [2] is described as follows: Solubility Screening Test I and II, HPLC of supernatant. The class given is physicochemical. Conditions: in toluene, anisole, and o-xylene. Here is the method: For each solvent, a 100 μL glass crimp-top vial was charged with ˜10 mg of PX-866 and sealed. By syringe, 2 parts of the appropriate solvent was added. If PX-866 dissolved completely, no further work was done. If necessary, more solvent was added to obtain a supernatant. The crimped vial was sonicated for 15 minutes and then centrifuged for 30 seconds. 1.0 μL of the supernatant was removed by syringe and added to a sealed HPLC vial containing 500 μL of acetonitrile. The same saturated solution was then heated for 30 minutes to a set point of 50° C., centrifuged again, and a second HPLC vial was prepared with 1.0 μL of the supernatant at 50° C. In the case of toluene, anisole, o-xylene, propyl acetate, 4-methyl-2-pentanone, and 1-pentanol the room temperature supernatant was transferred to a clean vial and cooled down to 0° C., and then −20° C. For each temperature, an HPLC vial was prepared with 1.0 μL of the supernatant. HPLC samples were run using the method described below and the 254 nm AUC was plotted on a calibration curve to obtain solubility data.
The samples that crystallized were cooled to 0° C. and subsequently −20° C. to acquire two additional temperature points. Solubility in the aliphatic solvents (propyl acetate, 4-methyl-2-pentanone, and 1-pentanol) decreased drastically with temperature from RT to −20° C.

For data set [3] the following is noted: aqueous solutions at either 37° C. or 0° C. at neutral pH; cited from earlier work.

SMILES strings stand for the structures.

For `COC[C@H]1OC(=O)c2coc3c2[C@@]1(C)C1=C(C3=O)[C@@H]2CCC(=O)[C@@]2(C)C[C@H]1OC(C)=O` [wortmannin], the “inhibition of PI-3K” value in data set [1] is recorded as “irreversibly inhibits”. Further, the “inhibition of PI-3 kinase isoforms” value in data set [1] (p110α, p110β, p110δ and p110γ) is recorded as “inhibited equally”. Besides, in data set [2], the Solubility result is “low”. Besides, in data set [3], the “stability in aqueous solution” value is “subject to decomposition”.
